Measurements published in patent US10526345B2, “Compounds as GPR119 agonists” (Mankind Pharma Ltd., priority 2016, dated 2020).

Each compound was assayed against T1, hGPR119 (Homo sapiens, UniProt Q8TDV5) (assay: In vitro cyclic AMP assay (Cisbio dynamic 2 HTRF kit) in CHO-hGPR119 cells). Details: 1 h, cAMP, compound at 1 μM, 60 min, read-out: Induction (% induction at 1 μM).
T1 construct: expressed in transfected cells; host or cells: CHO
T1 sequence (Q8TDV5 1-335): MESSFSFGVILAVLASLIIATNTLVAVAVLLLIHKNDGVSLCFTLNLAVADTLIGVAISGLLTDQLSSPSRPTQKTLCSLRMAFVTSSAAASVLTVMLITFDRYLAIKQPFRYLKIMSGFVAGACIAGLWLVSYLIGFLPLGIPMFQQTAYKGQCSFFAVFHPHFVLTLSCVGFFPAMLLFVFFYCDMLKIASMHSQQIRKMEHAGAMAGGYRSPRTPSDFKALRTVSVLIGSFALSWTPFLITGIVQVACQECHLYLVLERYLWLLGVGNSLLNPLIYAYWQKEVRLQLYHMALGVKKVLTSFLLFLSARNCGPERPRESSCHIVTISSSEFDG
Assay type: cell-based
Description: cAMP measurements were done using Cisbio dynamic 2 HTRF kit according to the manufacturer's protocol. Briefly, CHO-hGPR119 cells were plated at a cell density of 5000 cells/well/5 μl into a white small volume 384 well plate. The final concentrations of IBMX and DMSO used were 1 mM and 0.5% respectively. Cells were treated with various concentrations of the test compound for 60 min at room temperature. Cells were lysed by buffer containing Anti-cAMP antibody and d2-cAMP reagents and incubated for 1 hour at room temperature. HTRF was measured at 337 nm excitation and emission wavelengths of 665 nm and 620 nm on a microplate reader (Flurostar, BMG Labtech). Graphpad prism software was utilized for EC50 determinations.

Row | activation at 1 µM [%] | SMILES
1 | 0.3 | CC(C)OC(=O)N1CC=C(CCOc2nc3ccc(-c4ccc(S(C)(=O)=O)cc4)nc3s2)CC1 [Compound 1034, isopropyl 4-(2-((5-(4-(methylsulfonyl)phenyl)thiazolo[5,4-b]pyridin-2-yl)oxy)ethyl)-5,6-dihydropyridine-1(2H)-carboxylate]
2 | 2 | CC(C)c1noc(N2CC=C(CCOc3nc4ccc(-c5ccc(S(C)(=O)=O)cc5)nc4s3)CC2)n1 [Compound 1035, 3-isopropyl-5-(4-(2-((5-(4-(methylsulfonyl)phenyl)thiazolo[5,4-b]pyridin-2-yl)oxy)ethyl)-5,6-dihydropyridin-1(2H)-yl)-1,2,4-oxadiazole]
3 | 47 | COCC(Oc1nc2ccc(-c3ccc(S(C)(=O)=O)cc3)nc2s1)C1CCN(c2nc(C(C)C)no2)CC1 (stereo not shown) [Compound 1036, 3-isopropyl-5-(4-(2-methoxy-1-((5-(4-(methylsulfonyl)phenyl)thiazolo[5,4-b]pyridin-2-yl)oxy)ethyl)piperidin-1-yl)-1,2,4-oxadiazole]
4 | 18 | Cc1cc(-c2ccc(S(C)(=O)=O)cc2)nc2sc(OC(C)C3CCN(c4nc(C(C)C)no4)CC3)nc12 (stereo not shown) [Compound 1037, 3-isopropyl-5-(4-(1-((7-methyl-5-(4-(methylsulfonyl)phenyl)thiazolo[5,4-b]pyridin-2-yl)oxy)ethyl)piperidin-1-yl)-1,2,4-oxadiazole]
5 | 11 | Cc1cc(-c2ccc(S(C)(=O)=O)cc2)nc2sc(OCC3CCN(c4nc(C(C)C)no4)CC3)nc12 [Compound 1038, 3-isopropyl-5-(4-(((7-methyl-5-(4-(methylsulfonyl)phenyl)thiazolo[5,4-b]pyridin-2-yl)oxy)methyl)piperidin-1-yl)-1,2,4-oxadiazole]
6 | 20 | Cc1cc2nc(OC(C)C3CCN(c4nc(C(C)C)no4)CC3)sc2nc1-c1ccc(S(C)(=O)=O)cc1 (stereo not shown) [Compound 1039, 3-isopropyl-5-(4-(1-((6-methyl-5-(4-(methylsulfonyl)phenyl)thiazolo[5,4-b]pyridin-2-yl)oxy)ethyl)piperidin-1-yl)-1,2,4-oxadiazole]
7 | 48 | CC(C)c1noc(N2CCC(C(Oc3nc4ccc(-c5ccc(S(C)(=O)=O)cc5)nc4s3)C3CC3)CC2)n1 (stereo not shown) [Compound 1040, 5-(4-(cyclopropyl((5-(4-(methylsulfonyl)phenyl)thiazolo[5,4-b]pyridin-2-yl)oxy)methyl)piperidin-1-yl)-3-isopropyl-1,2,4-oxadiazole]
8 | 4 | CC(CC1CCN(c2nc(C(C)C)no2)CC1)Oc1nc2ccc(-c3ccc(S(C)(=O)=O)cc3)nc2s1 (stereo not shown) [Compound 1043, 3-isopropyl-5-(4-(2-((5-(4-(methylsulfonyl)phenyl)thiazolo[5,4-b]pyridin-2-yl)oxy)propyl)piperidin-1-yl)-1,2,4-oxadiazole]
9 | 3 | CC(C=C1CCN(c2nc(C(C)C)no2)CC1)Oc1nc2ccc(-c3ccc(S(C)(=O)=O)cc3)nc2s1 (stereo not shown) [Compound 1044, 3-isopropyl-5-(4-(2-((5-(4-(methylsulfonyl)phenyl)thiazolo[5,4-b]pyridin-2-yl)oxy)propylidene)piperidin-1-yl)-1,2,4-oxadiazole]
10 | 31 | CC(C)c1noc(N2CCC([C@H](C)Oc3nc4ccc(-c5ccc(C(=O)N(C)C)cc5)nc4s3)CC2)n1 [Compound 1045, (S)-4-(2-(1-(1-(3-isopropyl-1,2,4-oxadiazol-5-yl)piperidin-4-yl)ethoxy)thiazolo[5,4-b]pyridin-5-yl)-N,N-dimethylbenzamide]
11 | 1 | CC(C)c1noc(N2CCC(C(C)Oc3nc4ccc(-c5ccc(C(=O)N(C)C)cc5F)nc4s3)CC2)n1 (stereo not shown) [Compound 1046, 3-fluoro-4-(2-(1-(1-(3-isopropyl-1,2,4-oxadiazol-5-yl)piperidin-4-yl)ethoxy)thiazolo[5,4-]pyridin-5-yl)-N,N-dimethylbenzamide]
12 | 57 | CC(Oc1nc2ccc(-c3ccc(S(C)(=O)=O)cc3)nc2s1)C1CCN(c2nc(C3CC3)no2)CC1 (stereo not shown) [Compound 1048, 3-cyclopropyl-5-(4-(1-((5-(4-(methylsulfonyl)phenyl)thiazolo[5,4-b]pyridin-2-yl)oxy)ethyl)piperidin-1-yl)-1,2,4-oxadiazole]
13 | 14 | CC(C)c1noc(N2CCC(C(C)Oc3nc4ccc(-c5ccc(C(=O)NC6CC6)cc5)nc4s3)CC2)n1 (stereo not shown) [Compound 1049, N-cyclopropyl-4-(2-(1-(1-(3-isopropyl-1,2,4-oxadiazol-5-yl)piperidin-4-yl)ethoxy)thiazolo[5,4-b]pyridin-5-yl)benzamide]
14 | 16 | COCCNC(=O)c1ccc(-c2ccc3nc(OC(C)C4CCN(c5nc(C(C)C)no5)CC4)sc3n2)cc1 (stereo not shown) [Compound 1050, 4-(2-(1-(1-(3-isopropyl-1,2,4-oxadiazol-5-yl)piperidin-4-yl)ethoxy)thiaozlo[5,4-b]pyridin-5-yl)-N-(2-methoxyethyl)benzamide]
15 | 24 | CC(C)c1noc(N2CCC(C(C)Oc3nc4ccc(-c5ccc(C(=O)N6CCOCC6)cc5)nc4s3)CC2)n1 (stereo not shown) [Compound 1051, (4-(2-(1-(1-(3-isopropyl-1,2,4-oxadiazol-5-yl)piperidin-4-yl)ethoxy)thiazolo[5,4-b]pyridin-5-yl)phenyl)(morpholino)methanone]
16 | 13 | CC(C)c1noc(N2CCC(C(C)Oc3nc4ccc(-c5ccc(C(=O)N(C)C6CC6)cc5)nc4s3)CC2)n1 (stereo not shown) [Compound 1052, N-cyclopropyl-4-(2-(1-(1-(3-isopropyl-1,2,4-oxadiazol-5-yl)piperidin-4-yl)ethoxy)thiazolo[5,4-b]pyridin-5-yl)-N-methylbenzamide]
17 | 73 | CCCc1cnc(N2CCC(C(C)Oc3nc4ccc(-c5ccc(S(C)(=O)=O)cc5)nc4s3)CC2)nc1 (stereo not shown) [Compound 1053, 5-(4-(methyslulfonyl)phenyl)-2-(1-(1-(5-propylpyrimidin-2-yl)piperidin-4-yl)ethoxy)thiazolo[5,4-b]pyridine]
18 | 76 | CCc1cnc(N2CCC(C(C)Oc3nc4ccc(-c5ccc(S(C)(=O)=O)cc5)nc4s3)CC2)nc1 (stereo not shown) [Compound 1055, 2-(1-(1-(5-ethylpyrimidin-2-yl)piperidin-4-yl)ethoxy)-5-(4-(methylsulfonyl)phenyl)thiazolo[5,4-b]pyridine]
19 | 51 | CC(C)OC(=O)N1CCC(C(C)Oc2nc3ccc(-c4ccc(S(C)(=O)=O)cc4)nc3s2)CC1 (stereo not shown) [Compound 1056, isopropyl 4-(1-((5-(4-(methylsulfonyl)phenyl)thiazolo[5,4-b]pyridin-2-yl)oxy)ethyl)piperidine-1-carboxylate]
20 | 48 | CC(C)c1nc(N2CCC(C(C)Oc3nc4ccc(-c5ccc(S(C)(=O)=O)cc5)nc4s3)CC2)no1 (stereo not shown) [Compound 1058, 5-isopropyl-3-(4-(1-((5-(4-(methylsulfonyl)phenyl)thiazolo[5,4-b]pyridin-2-yl)oxy)ethyl)piperidin-1-yl)-1,2,4-oxadiazole]
21 | 39 | CC(C)c1noc(N2CCC(Oc3nc4ccc(-c5ccc(S(C)(=O)=O)cc5)nc4s3)C(F)C2)n1 (stereo not shown) [Compound 1060, 5-(3-fluoro-4-((5-(4-(methylsulfonyl)phenyl)thiazolo[5,4-b]pyridin-2-yl)oxy)piperidin-1-yl)-3-isopropyl-1,2,4-oxadiazole]
22 | 48 | CNS(=O)(=O)c1ccc(-c2ccc3nc(OC(C)C4CCN(c5nc(C(C)C)no5)CC4)sc3n2)cc1 (stereo not shown) [Compound 1061, 4-(2-(1-(1-(3-isopropyl-1,2,4-oxadiazol-5-yl)piperidin-4-yl)ethoxy)thiazolo[5,4-b]pyridin-5-yl)-N-methylbenzenesulfonamide]
23 | 58 | CC(C)c1noc(N2CCC(C(C)Oc3nc4ccc(-c5ccc(S(=O)(=O)C6CC6)cc5)nc4s3)CC2)n1 (stereo not shown) [Compound 1063, 5-(4-(1-((5-(4-(cyclopropylsulfonyl)phenyl)thiazolo[5,4-b]pyridin-2-yl)oxy)ethyl)piperidin-1-yl)-3-isopropyl-1,2,4-oxadiazole]
24 | 60 | CC(C)c1noc(N2CCC(C(C)Oc3nc4ccc(-c5ccc(C#N)cc5)nc4s3)CC2)n1 (stereo not shown) [Compound 1065, 4-(2-(1-(1-(3-isopropyl-1,2,4-oxadiazol-5-yl)piperidin-4-yl)ethoxy)thiazolo[5,4-b]pyridin-5-yl)benzonitrile]
25 | 30 | COCCNS(=O)(=O)c1ccc(-c2ccc3nc(OC(C)C4CCN(c5nc(C(C)C)no5)CC4)sc3n2)cc1 (stereo not shown) [Compound 1066, 4-(2-(1-(1-(3-isopropyl-1,2,4-oxadiazol-5-yl)piperidin-4-yl)ethoxy)thiazolo[5,4-b]pyridin-5-yl)-N-(2-methoxyethyl)benzenesulfonamide]
26 | 36 | COCCS(=O)(=O)c1ccc(-c2ccc3nc(OC(C)C4CCN(c5nc(C(C)C)no5)CC4)sc3n2)cc1 (stereo not shown) [Compound 1067, 3-isopropyl-5-(4-(1-((5-(4-((2-methoxyethyl)sulfonyl)phenyl)thiazolo[5,4-b]pyridin-2-yl)oxy)ethyl)piperidin-1-yl)-1,2,4-oxadiazole]
27 | 13 | COCC[S+]([O-])c1ccc(-c2ccc3nc(OC(C)C4CCN(c5nc(C(C)C)no5)CC4)sc3n2)cc1 (stereo not shown) [Compound 1068, 3-isopropyl-5-(4-(1-((5-(4-((2-methoxyethyl)sulfinyl)phenyl)thiazolo[5,4-b]pyridin-2-yl)oxy)ethyl)piperidin-1-yl)-1,2,4-oxadiazole]

Same assay, conditions: cAMP

Row | EC50 [nM] | SMILES
28 | 50 to 100 | CCCc1cnc(N2CCC(C(C)Oc3nc4ccc(-c5ccc(S(C)(=O)=O)cc5)nc4s3)CC2)nc1 (stereo not shown) [Compound 1053, 5-(4-(methyslulfonyl)phenyl)-2-(1-(1-(5-propylpyrimidin-2-yl)piperidin-4-yl)ethoxy)thiazolo[5,4-b]pyridine]
